“Also recorded” adds a separate entry of the source.
How the values were obtained:
liver cancer HepG2 cells = assay: BrdU proliferation assay, HepG2; format: cell-based, human; details: 48 h
Procedure: (§1) For BrdU assays, 1×10^4 of indicated cells were plated per well into a 96-well plate. After 24 h, cells were treated with the indicated inhibitors for 48 h. Three independent experiments were plated with six replicates per each condition. Cells were treated with […] BrdU for 2 h. BrdU incorporation into newly synthesized DNA was measured using a cell proliferation colorimetric immunoassay kit according to the manufacturer's instructions (Roche, Switzerland). Results are expressed as mean±S.D. Results are represented as percentage of positive cells (mean±S.D) of three independent experiments.

Hakai-MDCK cells = assay: Invasion assay, Hakai-MDCK; format: cell-based; details: treated 48 h
Procedure: For invasion assays, cells were treated with Hakin-1 or DMSO as vehicle for 48 h using 1% FBS during the last 24 hours. 3×10^5 MDCK, MDCK-Hakai or LoVo cells were seeded in a cell invasion chamber (Cell invasion assay kit, Chemicon International) containing medium with 2% FBS. After 72 hours for MDCK and MDCK-Hakai Invasive and 16 h for LoVo cells, invasive cells invaded that reach the lower chamber containing 30% FBS were fixed and stained with crystal violet (Sigma Aldrich, St Louis, Mo.) following the manufacturer's specifications. For migration assays, HT29 cells were cultured with Hakin-1 or DMSO as vehicle for 48 h, using medium without serum the last 24 h. In the cell migration chamber were seeded 3×10^5 HT29 cells (Cell migration kit, Millipore, Bedford, Mass.) containing medium without serum. After 16 h, migrated cells in the lower chamber containing serum with 30% FBS were stained with crystal violet and counted following the manufacturer's specifications. For both invasion and migration assays cells were counted in five fields photographed with an Olympus microscope using a 20× objective, experiments were performed in triplicates for each condition and the assays were repeated at least three times. Results are expressed as mean±SD.

[1] = system: HT-29 colon tumour cell line; assay: MTT cell viability assay, HT-29; format: cell-based, human; details: increasing range of concentrations
Procedure: For cytotoxicity assays, 1×10^4 cells were seeded per well into a 96-well plate. After 24 h cells were treated with the indicated inhibitors for 72 h and a MTT colorimetric cell viability assay was performed following manufacturer's instructions (Sigma Aldrich, St Louis, Mo.). Absorbance was measured at 570 and 630 nm using a Multiskan Plus Reader (Nanoquant Infinite M200 Tecan Trading AG, Switzerland). Dose-response curves were designed with Graph Pad Prism Software and the half-maximal inhibitory concentration (IC50) values were calculated. Represented data are the mean±SEM of at least three independent experiments with six replicates per condition.

[2] = system: Hakai-MDCK xenograft tumours; assay: Tumour xenograft model (Hakai-MDCK cells in nude mice); format: in vivo
Procedure: Xenografts experiments were performed in Experimental Surgery Unit—Technological Training Center from INIBIC in compliance with the European Community Law (86/609/EEC) and the Spanish law (R.D. 53/2013). The experiment was approved by the Ethics Committee for Animal Experimentation of Xerencia de Xestion Integrada da Coruna (XXIAC). Mice were in a 12/12 hours light/dark cycle with water and food available ad libitum. Six weeks old athymic nu/nu mice were randomly distributed in groups. One million of MDCK cells, resuspended in DMEM without serum and antibiotic, were subcutaneously inoculated in both flanks in two groups of 3 animals. The same number of Hakai-MDCK cells were injected in two groups of 4 animals. […] Then, half of the animals were treated with Hakin-1 (5 mg/kg) and the other half with the same concentration of DMSO every 3 days. Tumour outgrowth was monitored twice a week taking measurements of tumour length (L) and width (W) with an electronic calipter. Tumour volume was calculated as pLW2/6. Forty days after inoculation, animals were sacrificed. Tumours, lungs, kidneys and livers were collected and fixed in 4% PFA and embedded in paraffin blocks for histology and/or immunohistochemistry (IHC) analyses.
Tumours and tissues were deparaffinised, rehydrated and stained with haematoxylin and eosin (H&E) as previously described. Tumour sections (4 μm) were also deparaffinised and hydrated for immunohistochemistry. Antigen retrieval was carried by heating the samples (2100 Retriever; PickCell Laboratories) in citrate buffer (Dako REAL, Denmark) or in EDTA buffer. Then, endogenous peroxidase activity was blocked with peroxidase blocking (DakoCytomation, Denmark). Samples were blocked and permeabilized with 0.2% BSA and 0.1% Tx-100 for 1 hour and incubated with the indicated primary antibodies overnight at 4° C. in a wet chamber. Slides were incubated for 1 hour at room temperature with the secondary antibody and detection was carried our using DAB (DakoReal Envision kit) according to manufacturer instructions. Finally, nuclei were counterstained with Gill's Hematoxylin and mounted with DePeX. Pictures were taken with an Olympus microscope. Quantification of images was performed taken 5 photographs of each animal with Image J programme and the represented results are shown as mean±SEM. The number of mitosis was counted in sections stained with H&E. In this case, ten pictures of each tumour were taken with an Olympus BX50 microscope (objective 40×) and the number of mitosis was counted manually. Results are represented as mean±SEM and a representative photograph is shown for each condition.
Real-time PCR was used to study the presence of metastasis in the lung mice. Primers for HA epitope and Hakai present in ectopic HA-tagged Hakai expressed in MDCK-Hakai cells (5′-[…]-3′; 5″-[…]-3′) were used for the quantification. Primers for mouse apolipoprotein B (apob) (5′-[…]-3′; 5′-[…]-3′) were used as endogenous control. MDCK cell line was used as negative control. Lung DNA was extracted from 10-15 sections of paraffin blocks (4 μm) using with QIAamp DNA Mini Kit (Qiagen). The amplification and quantification of DNA was carried by quantitative PCR in technical triplicates by using a LightCycler 480 real-time lightcycler (Roche). Relative DNA levels were calculated by 2^−ΔΔCt method.
Tissue sections from tumours were deparaffinised and rehydrated using standard protocols. The slides were rinsed twice with PBS and treated with citrate buffer buffer (Dako REAL, Denmark) in microwave at 350 W for 5 min. The tissue sections were then analysed with an in situ Cell Death Detection Kit, Fluorescein (Roche) following the manufacturer's instructions. Then, slides were incubated with Hoechst for 5 min in darkness. The reaction was visualized under an epifluorescence Olympus microscope using 20× objective.

breast cancer MCF7 cell = assay: BrdU proliferation assay, MCF7; format: cell-based, human; details: 48 h
Procedure: as §1

[3] = Hakai-MDCK xenograft tumours, immunohistochemistry
[4] = Hakai-MDCK xenograft, nude mice, 5 mg/kg

In the case of O=C(O)c1ccc(-n2nnnc2SCC(=O)c2ccc([N+](=O)[O-])cc2)cc1 [Hakin-1, 4-(5-[2-(4-nitrophenyl)-2-oxoethyl]thiol-1H-tetrazol-1-yl)benzoic acid], the “cell proliferation (BrdU)” value (liver cancer HepG2 cells) is reported as “inhibited cell proliferation”, the cell invasion (Hakai-MDCK cells) is reported as “decreased cell invasion” and the “cytotoxicity (cell viability, MTT)” value [1] is reported as “important inhibitory response”. For the same compound, the “micrometastasis in lung (quantitative PCR of HA-tagged Hakai DNA)” value ([2]; Hakai-MDCK xenograft mice, vs DMSO treated mice) was “significant reduction of micrometastasis”, the “Cortactin expression (immunohistochemistry)” value ([2]; Hakai-MDCK xenograft tumours) was “recovered” and the “apoptosis (TUNEL assay)” value ([2]; Hakai-MDCK xenograft tumours) was “does not affect cell apoptosis; also recorded: no effect on apoptosis was detected”. The mitotic-index ([2]; Hakai-MDCK xenograft tumours, H&E) was “markedly reduce”, the “number of Ki67-positive cells” value [2, 3] was “markedly reduce” and the “number of blood vessels (CD31 angiogenic marker)” value [2, 3] was “strong reduction on the number of blood vessels”. The “N-cadherin mesenchymal marker expression (immunohistochemistry)” value ([2]; Hakai-MDCK xenograft tumours, vs DMSO treated mice) was “strongly reduced”, the “tumour cell morphology (H&E)” value [2, 4] was “induction of tumour differentiation and an increase in cytoplasm size” and the “tumour-cell infiltration in blood vessels (H&E)” value [2, 4] was “no infiltration was detected”. For the same compound, the xenograft tumour growth ([2]; Hakai-MDCK xenograft, nude mice, 5 mg/kg every 3 days, vs DMSO, 5 mg/kg) was “inhibits tumour growth; also recorded: potent effect on inhibiting xenograft tumour growth; also recorded: strong antitumor effect; also recorded: inhibited tumor growth”, the “tissue damage / systemic toxicity (H&E of organs)” value ([2]; nude mice treated with 5 mg/kg, 5 mg/kg) was “Intact cell morphology and tissue structure of liver and kidney; also recorded: no damage was observed in lung and kidney tissues; also recorded: apparently without systemic toxicity” and the “cell proliferation (BrdU)” value (breast cancer MCF7 cell) was “inhibited cell proliferation”.
